# Measurements: publication PMC7367283, “A PIP2 substitute mediates voltage sensor-pore coupling in KCNQ activation” (Communications Biology, 2020)
# Molecular target: IKs channels (Homo sapiens, UniProt P51787)
# Test: Inside-out patch clamp of IKs channels expressed in Xenopus oocytes (rundown and rescue)
# Assay type: cell-based
# Settings: 10 µM CP1 on intracellular side; pulses to +80 mV
# Excerpt: We tested whether CP1 can mimic PIP2 in mediating VSD-pore coupling. We co-expressed KCNQ1 with the voltage-dependent lipid phosphatase CiVSP[44] in Xenopus oocytes and recorded KCNQ1 currents using two-electrode voltage clamp with consecutive depolarizing voltage pulses. The current increased upon KCNQ1 activation at the beginning of the first voltage pulse (First trace, Fig. 2a) and then declined due to CiVSP activation to deplete PIP2[18]. A subsequent voltage pulse elicited much smaller KCNQ1 currents (Rundown trace, Fig. 2a) as a result of PIP2 depletion that had insufficient time to be replenished by endogenous enzymes between the pulses. […] Similarly, the IKs channel (KCNQ1 + KCNE1) currents decrease upon co-expression with CiVSP with consecutive voltage pulses (Fig. 2c, d), which is similar to our previous observations. […] To more directly test CP1 effects, we applied CP1 to the intracellular side of the inside-out membrane patch that expressed IKs channels. […]
# Macroscopic currents expressed in Xenopus oocytes were recorded from inside-out patches formed with borosilicate pipettes of 0.5–1.0-MΩ resistance. […]
structure (smiles),measurement,value
"O=S(=O)([O-])Oc1c(-c2sc3c(ccc4cccc(Cl)c43)c2OS(=O)(=O)[O-])[nH]c2ccc(Br)cc12.[Na+].[Na+] [CP1, DISODIUM 5-BROMO-2-[9-CHLORO-3-(SULFONATOOXY) NAPHTHO [1,2-B] THIEN-2-YL]-1H-INDOL-3-YL SULFATE]",IKs current after rundown in inside-out patch,the current increased with consecutive voltage pulses
